Source: patent US20100022483A1, “Substituted Tetracycline Compounds” (Paratek Pharmaceuticals, Inc., priority 2008, published 2010)
Values after ≈ are worked out from the molar mass of the structure shown. Like-named read-outs stand apart in the source and are kept apart here.

Columns and labels:
3T3 fibroblast cells = test: In vitro phototoxicity assay (neutral red; UV light-treated vs dark control plates); assay type: cell-based; conditions: for Photo Toxicity UV Tox50: UV light 50 minutes; for Photo Toxicity Dark Tox50: dark control plate
Method in brief: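 Neutral red viability readout (A535 after EtOH/acetic acid extraction) compares paired plates: one exposed 50 min to UV at 1.6–1.8 mW/cm^2, one held in darkness, both dosed with compound in HBSS and recovered overnight. 3T3 fibroblast cells used; phototoxicity taken as the difference.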

gram negative bacteria = test: In vitro anti-bacterial activity assay (broth dilution MIC), gram negative bacteria; assay type: cell-based, E. coli
Method in brief: (§1)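 Broth dilution MIC following CLSI M7-A2: compounds serially diluted, log-phase test strains added to final ~5×10^5 CFU/ml, incubated ~18 hours at 35° C in ambient air. Plates read on microplate reader or visually; MIC is lowest concentration inhibiting growth.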

gram positive bacteria = test: In vitro anti-bacterial activity assay (broth dilution MIC), gram positive bacteria; assay type: cell-based, S. aureus; conditions: 18 h
Method in brief: as §1

in vitro = assay type: cell-based; conditions: Chinese hamster, Cytotox. CHO-K1
[1] = Mammalian cytotoxicity assay (resazurin), COS-1 cells; assay type: cell-based; conditions: African green monkey, read-out: Cytotox. COS-1
Method in brief: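 Resazurin read-out (0.042 mg/ml, 2 h at 37° C. then 30 min dark, room temperature; fluorescence 535/590 nm) follows 24-hour compound exposure of overnight-seeded cells, serially diluted. IC50 is the concentration giving 50% growth inhibition.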

[2] = Escherichia coli, 18 h, E. coli D1 209, read-out: Median MIC's G− E. coli D1 209
[3] = Escherichia coli, 18 h, E. coli MG 1655, read-out: Median MIC's G− E. coli MG 1655
[4] = Escherichia coli, ATCC25922, 18 h, E. coli ATCC 25922, read-out: Median MIC's G− E. coli ATCC 25922
[5] = Pseudomonas aeruginosa, 18 h, P. aeruginosa K201 PAO6609, read-out: Median MIC's G− P. aeruginosa K201 PAO6609
[6] = Staphylococcus aureus, S. aureus MRSA5, read-out: Median MIC's G+ S. aureus MRSA5
[7] = Staphylococcus aureus, S. aureus RN450, read-out: Median MIC's G+ S. aureus RN450
[8] = Streptococcus pneumoniae, S. pneumoniae 157E-Strep, read-out: Median MIC's G+ S. pneumoniae 157E-Strep

SMILES | Photo Toxicity UV Tox50 (3T3 fibroblast cells) | Photo Toxicity Dark Tox50 (3T3 fibroblast cells) | MIC (gram negative bacteria; [2]) | MIC (gram negative bacteria; [3]) | MIC (gram negative bacteria; [4]) | MIC (gram negative bacteria; [5]) | MIC (gram positive bacteria; [6]) | MIC (gram positive bacteria; [7]) | MIC (gram positive bacteria; [8]) | IC50 at 24 h (in vitro) | IC50 at 24 h [1] | MIC (gram positive bacteria; Staphylococcus aureus, read-out: Median MIC's G+ S. aureus MRSA5) | MIC (gram positive bacteria; Staphylococcus aureus, read-out: Median MIC's G+ S. aureus RN450) | MIC (gram positive bacteria; Streptococcus pneumoniae, read-out: Median MIC's G+ S. pneumoniae 157E-Strep) | MIC (gram negative bacteria; Escherichia coli, 18 h, read-out: Median MIC's G− E. coli D1 209, E. coli D1 209) | MIC (gram negative bacteria; Escherichia coli, 18 h, read-out: Median MIC's G− E. coli MG 1655, E. coli MG 1655) | MIC (gram negative bacteria; Escherichia coli, ATCC25922, 18 h, read-out: Median MIC's G− E. coli ATCC 25922, E. coli ATCC 25922) | MIC (gram negative bacteria; Pseudomonas aeruginosa, 18 h, read-out: Median MIC's G− P. aeruginosa K201 PAO6609, P. aeruginosa K201 PAO6609)
CN(C)CCCc1cccc(-c2ccc(O)c3c2C[C@H]2C[C@H]4[C@H](N(C)C)C(O)=C(C(N)=O)C(=O)[C@@]4(O)C(O)=C2C3=O)c1 [DJ] | >200 µM | >200 µM | 2 µg/mL (≈ 3.47 µM) | 8 µg/mL (≈ 13.9 µM) | 2 µg/mL (≈ 3.47 µM) | 64 µg/mL (≈ 111 µM) | 4 µg/mL (≈ 6.95 µM) | 0.0625 µg/mL (≈ 0.109 µM) | 0.06 µg/mL (≈ 0.104 µM) | 119 µM | 141 µM |  |  |  |  |  |  | 
CN1CCN(Cc2cccc(-c3ccc(O)c4c3C[C@H]3C[C@H]5[C@H](N(C)C)C(O)=C(C(N)=O)C(=O)[C@@]5(O)C(O)=C3C4=O)c2)CC1 [DK] | >200 µM | >200 µM | 2 µg/mL (≈ 3.32 µM) | 4 µg/mL (≈ 6.64 µM) | 1 µg/mL (≈ 1.66 µM) | 64 µg/mL (≈ 106 µM) | 4 µg/mL (≈ 6.64 µM) | 0.0625 µg/mL (≈ 0.104 µM) | 0.06 µg/mL (≈ 0.0996 µM) | 92.3 µM | > 200 µM |  |  |  |  |  |  | 
CN1CCN(C(=O)c2cccc(-c3ccc(O)c4c3C[C@H]3C[C@H]5[C@@H](N(C)C)C(O)=C(C(N)=O)C(=O)[C@@]5(O)C(O)=C3C4=O)c2)CC1 [D] | >130.51 µM | >130.51 µM | 64 µg/mL (≈ 104 µM) | 64 µg/mL (≈ 104 µM) | 64 µg/mL (≈ 104 µM) | 64 µg/mL (≈ 104 µM) | 64 µg/mL (≈ 104 µM) | 32 µg/mL (≈ 51.9 µM) | 4 µg/mL (≈ 6.49 µM) | > 131 µM | > 131 µM |  |  |  |  |  |  | 
CCN(CC)CCNC(=O)c1cccc(-c2ccc(O)c3c2C[C@H]2C[C@H]4[C@H](N(C)C)C(O)=C(C(N)=O)C(=O)[C@@]4(O)C(O)=C2C3=O)c1 [E, (4S,4aS,5aR,12aS)-7-[3-(2-Diethylamino-ethylcarbamoyl)-phenyl]-4-dimethylamino-3,10,12,12a-tetrahydroxy-1,1′-dioxo-1,4,4a,5,5a,6,11,12a-octahydro-naphthacene-2-carboxylic acid amide] | >138.88 µM | >138.88 µM | 64 µg/mL (≈ 101 µM) | 8 µg/mL (≈ 12.6 µM) | 8 µg/mL (≈ 12.6 µM) | 64 µg/mL (≈ 101 µM) | 16 µg/mL (≈ 25.3 µM) | 0.5 µg/mL (≈ 0.79 µM) | 0.125 µg/mL (≈ 0.198 µM) | > 139 µM | > 139 µM |  |  |  |  |  |  | 
CCCCNC(=O)c1cccc(-c2ccc(O)c3c2C[C@H]2C[C@H]4[C@H](N(C)C)C(O)=C(C(N)=O)C(=O)[C@@]4(O)C(O)=C2C3=O)c1 [F] | >151.73 µM | >151.73 µM | 64 µg/mL (≈ 109 µM) | 64 µg/mL (≈ 109 µM) | 64 µg/mL (≈ 109 µM) | 64 µg/mL (≈ 109 µM) |  |  |  | > 15.2 µM | 15.2 µM | 1 µg/mL (≈ 1.7 µM) | 0.06 µg/mL (≈ 0.102 µM) | 0.06 µg/mL (≈ 0.102 µM) |  |  |  | 
CN(C)[C@@H]1C(O)=C(C(N)=O)C(=O)[C@@]2(O)C(O)=C3C(=O)c4c(O)ccc(-c5cnc6ccccc6c5)c4C[C@H]3C[C@@H]12 [G] | 19.29 µM | >159.48 µM | 64 µg/mL (≈ 118 µM) | 64 µg/mL (≈ 118 µM) | 4 µg/mL (≈ 7.39 µM) | 64 µg/mL (≈ 118 µM) | 0.5 µg/mL (≈ 0.923 µM) | 0.06 µg/mL (≈ 0.111 µM) | 0.06 µg/mL (≈ 0.111 µM) | 14.8 µM | 15.9 µM |  |  |  |  |  |  | 
CN(C)[C@H]1C(O)=C(C(N)=O)C(=O)[C@@]2(O)C(O)=C3C(=O)c4c(O)ccc(-c5cnc6ccccc6c5)c4C[C@H]3C[C@@H]12 [H] | >159.48 µM | >159.48 µM | 64 µg/mL (≈ 118 µM) | 64 µg/mL (≈ 118 µM) | 64 µg/mL (≈ 118 µM) | 64 µg/mL (≈ 118 µM) | 2 µg/mL (≈ 3.69 µM) | 0.5 µg/mL (≈ 0.923 µM) | 0.25 µg/mL (≈ 0.462 µM) | > 15.9 µM | > 15.9 µM |  |  |  |  |  |  | 
CCOC(=O)CCNC(=O)c1cccc(-c2ccc(O)c3c2C[C@H]2C[C@H]4[C@H](N(C)C)C(O)=C(C(N)=O)C(=O)[C@@]4(O)C(O)=C2C3=O)c1 [I, 3-[3-((6aS,10S,10aS,11aR)-8-Carbamoyl-10-dimethylamino-4,6,6a,9-tetrahydroxy-5,7-dioxo-5,6a,7,10,10a,11,11a,12-octahydro-naphthacen-1-yl)-benzoylamino]-propionic acid ethyl ester] | >141.76 µM | >141.76 µM |  |  |  |  | 2 µg/mL (≈ 3.16 µM) | 0.06 µg/mL (≈ 0.0947 µM) | 3 µg/mL (≈ 4.73 µM) | > 14.2 µM | > 14.2 µM |  |  |  | 64 µg/mL (≈ 101 µM) | 64 µg/mL (≈ 101 µM) | 64 µg/mL (≈ 101 µM) | 64 µg/mL (≈ 101 µM)
CN(C)CC(=O)Nc1cccc(-c2ccc(O)c3c2C[C@H]2C[C@H]4[C@H](N(C)C)C(O)=C(C(N)=O)C(=O)[C@@]4(O)C(O)=C2C3=O)c1 [K, (4S,4aS,5aR,12aS)-4-Dimethylamino-7-[3-(2-dimethylamino-acetylamino)-phenyl]-3,10,12,12a-tetrahydroxy-1,11-dioxo-1,4,4a,5,5a,6,11,12a-octahydro-naphthacene-2-carboxylic acid amide] | >128.09 µM | >128.09 µM | 2 µg/mL (≈ 3.39 µM) | 2 µg/mL (≈ 3.39 µM) | 1 µg/mL (≈ 1.69 µM) | 64 µg/mL (≈ 108 µM) | 2 µg/mL (≈ 3.39 µM) | 0.06 µg/mL (≈ 0.102 µM) | 0.06 µg/mL (≈ 0.102 µM) | > 12.8 µM | > 12.8 µM |  |  |  |  |  |  | 
COCCNC(=O)c1cccc(-c2ccc(O)c3c2C[C@H]2C[C@H]4[C@H](N(C)C)C(O)=C(C(N)=O)C(=O)[C@@]4(O)C(O)=C2C3=O)c1 [L] | >151.25 µM | >151.25 µM | 64 µg/mL (≈ 108 µM) | 32 µg/mL (≈ 54.1 µM) | 8 µg/mL (≈ 13.5 µM) | 64 µg/mL (≈ 108 µM) | 1 µg/mL (≈ 1.69 µM) | 0.06 µg/mL (≈ 0.101 µM) | 0.06 µg/mL (≈ 0.101 µM) | > 15.1 µM | > 15.1 µM |  |  |  |  |  |  | 
CNCCNC(=O)c1cccc(-c2ccc(O)c3c2C[C@H]2C[C@H]4[C@H](N(C)C)C(O)=C(C(N)=O)C(=O)[C@@]4(O)C(O)=C2C3=O)c1 [M] | >143.16 µM | >143.16 µM | 64 µg/mL (≈ 108 µM) | 64 µg/mL (≈ 108 µM) | 64 µg/mL (≈ 108 µM) | 64 µg/mL (≈ 108 µM) | 64 µg/mL (≈ 108 µM) | 4 µg/mL (≈ 6.77 µM) | 32 µg/mL (≈ 54.2 µM) | > 143 µM | > 143 µM |  |  |  |  |  |  | 
CN(C)[C@@H]1C(O)=C(C(N)=O)C(=O)[C@@]2(O)C(O)=C3C(=O)c4c(O)ccc(-c5cccc(C(=O)NCCN)c5)c4C[C@H]3C[C@@H]12 [N] | 95.14 µM | >150.87 µM | 64 µg/mL (≈ 111 µM) | 64 µg/mL (≈ 111 µM) | 64 µg/mL (≈ 111 µM) | 64 µg/mL (≈ 111 µM) | 64 µg/mL (≈ 111 µM) | 2 µg/mL (≈ 3.47 µM) | 16 µg/mL (≈ 27.7 µM) | > 46.8 µM | > 46.8 µM |  |  |  |  |  |  | 
CCN(CC)CCNC(=O)c1cccc(-c2ccc(O)c3c2C[C@H]2C[C@H]4[C@@H](N(C)C)C(O)=C(C(N)=O)C(=O)[C@@]4(O)C(O)=C2C3=O)c1 [O] | >134.63 µM | >134.63 µM | 64 µg/mL (≈ 101 µM) | 64 µg/mL (≈ 101 µM) | 64 µg/mL (≈ 101 µM) | 64 µg/mL (≈ 101 µM) | 64 µg/mL (≈ 101 µM) | 4 µg/mL (≈ 6.32 µM) | 4 µg/mL (≈ 6.32 µM) | > 135 µM | > 135 µM |  |  |  |  |  |  | 
